Results as given in PMC6151407 (Molecules : A Journal of Synthetic Chemistry and Natural …, 2017).
≈ marks a conversion by molar mass, not a printed value. Where two headings read alike, the source gives them in different places.

Experiments:
AGE formation = test: Inhibition of AGE formation (bovine serum albumin with fructose and glucose, fluorescence); format: biochemical; details: 60 °C for 2 days, pH 7.4, mean ± S.D. (n = 3); for IC50: isolated compounds, read-out: IC50 AGEs Formation
Protocol: Inhibition of AGE formation was measured with a spectrophotometric method developed previously. All tested samples were dissolved in 10% DMSO at five different final concentrations (10–500 µg/mL for extracts and fractions or 10–500 µM for isolated constituents). The assay mixture contained bovine serum albumin (10 mg/mL), 50 mM phosphate buffer (pH 7.4) with 0.02% sodium azide, and 0.4 M fructose and glucose. The reaction was incubated at 60 °C for 2 days. After incubating, fluorescence was measured at an excitation wavelength of 350 nm and emission of 450 nm in a black 96-well plate. Aminoguanidine (AG), a typical inhibitor of AGE formation, was used as a positive control. The inhibitory activity was calculated with the following formula: (Ac − As/Ac) × 100, where Ac is the fluorescence of the control, and As is the fluorescence of the sample.

[1] = biological target: T1, electric eel AChE (EC3.1.1.7) (Electrophorus electricus, UniProt O42275); test: biochemical
T1 construct: purchased Sigma-Aldrich Chemical Company (St. Louis, MO, USA)
T1 sequence (O42275 24-633): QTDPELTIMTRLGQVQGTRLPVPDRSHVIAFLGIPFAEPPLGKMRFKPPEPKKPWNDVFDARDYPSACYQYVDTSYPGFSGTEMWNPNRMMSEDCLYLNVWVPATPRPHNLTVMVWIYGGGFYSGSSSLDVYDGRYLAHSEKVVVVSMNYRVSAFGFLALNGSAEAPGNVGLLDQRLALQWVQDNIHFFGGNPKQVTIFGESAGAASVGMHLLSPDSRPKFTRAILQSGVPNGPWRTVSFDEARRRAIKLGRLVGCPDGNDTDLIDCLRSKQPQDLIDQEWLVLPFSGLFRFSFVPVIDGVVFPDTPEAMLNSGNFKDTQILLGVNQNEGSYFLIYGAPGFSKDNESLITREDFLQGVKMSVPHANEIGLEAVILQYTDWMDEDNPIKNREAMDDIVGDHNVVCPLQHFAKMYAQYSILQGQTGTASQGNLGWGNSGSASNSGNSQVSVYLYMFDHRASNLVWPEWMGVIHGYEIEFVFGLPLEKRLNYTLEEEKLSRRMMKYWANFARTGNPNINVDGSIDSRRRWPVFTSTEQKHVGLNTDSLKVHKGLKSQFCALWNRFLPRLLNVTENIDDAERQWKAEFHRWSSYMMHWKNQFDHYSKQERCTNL
Protocol: (§1) n-Hexane (Hx), ethyl acetate (EA), n-butanol (BuOH), methanol (MeOH), ethanol (EtOH), and distilled water were used for extraction, fractionation, and open column chromatography. Open column chromatography used Sephadex LH-20 (25–100 μm; Pharmacia, Stockholm, Sweden), MCI CHP 20P (Supelco, St. Louis, MO, USA), and ODS gel (400–500 mesh; Waters, Milford, MA, USA). Dimethyl sulfoxide-d6 (DMSO-d6) and chloroform-d (CDCl3) were used for the NMR solution. MS was performed with ultra-high performance liquid chromatography and high-resolution mass spectrometry (UHPLC-HRMS) coupled with electrospray ionization hybrid linear trap-quadruple-Orbitrap MS (ESI/LTQ-Orbitrap) on an Ultimate 3000 rapid separation liquid chromatography (RSLC) system (Thermo, Darmstadt, Germany). ^1H- and ^13C-nuclear magnetic resonance (NMR) spectra were collected at 600 and 150 MHz, respectively, with a JEOL spectrometer. Chemical shifts are expressed as parts per million (ppm) on the δ scale, and coupling constants (J) are shown in Hertz. HPLC was conducted with Empower Pro 2.0 software (Waters, Milford, MA, USA), and determination was performed with a Waters 2695 system pump and Waters 996 Photodiode array detector (Waters, Milford, MA, USA). The separation column was a Waters Sunfire™ C18 column (4.6 × 250 mm, 5 μm). HPLC-grade solvents, such as acetonitrile (ACN), methanol (MeOH), and distilled water (H2O), were purchased from J. T. Baker® (Phillipsburg, PA, USA). HPLC-grade phosphoric acid and dimethyl sulfoxide (DMSO) were obtained from DEAJUNG Chemical (Siheung, Gyeonggi, Korea). Reagents and solvents including electric eel AChE (EC3.1.1.7), horse serum BChE (EC3.1.1.8), acetylthiocholine iodide (ACh), butyrylthiocholine chloride (BCh), 5,5′-dithiobis [2-nitrobenzoic acid] (DTNB), berberine, bovine serum albumin, aminoguanidine (AG), glucose, and fructose were purchased from Sigma-Aldrich Chemical Company (St. Louis, MO, USA). The BACE1 FRET assay kit (β-secretase) was purchased from PanVera Co. (Madison, WI, USA).
(§2) ChE activity was detected by AChE- or BChE-mediated hydrolysis of […] for 15 min to form thiocholine and the yellow 5-thio-2-nitrobenzoate anion. The result was quantified by measuring the absorbance 412 nm. The assay mixture contained 0.1 M potassium phosphate buffer (pH 7.8), 0.3 U/mL AChE or BChE, 0.5 mM DTNB, 0.6 mM ACh or BCh, and the sample for a total volume of 0.2 mL. All tested samples were dissolved in 10% DMSO at five different final concentrations (10–500 µg/mL for extracts and fractions or 10–500 µM for isolated constituents). The reaction was performed in a 96-well plate. […] Inhibitory activity was calculated with the following formula: (Ac − As/Ac) × 100, where Ac is the change in absorbance for the control after 15 min and As is the change in absorbance for the sample after 15 min.

[2] = biological target: T2, horse serum BChE (EC3.1.1.8) (Equus caballus, UniProt P81908); test: biochemical
T2 construct: horse serum BChE (EC3.1.1.8); purchased Sigma-Aldrich Chemical Company (St. Louis, MO, USA); host or cells: horse serum
T2 sequence (P81908 whole entry): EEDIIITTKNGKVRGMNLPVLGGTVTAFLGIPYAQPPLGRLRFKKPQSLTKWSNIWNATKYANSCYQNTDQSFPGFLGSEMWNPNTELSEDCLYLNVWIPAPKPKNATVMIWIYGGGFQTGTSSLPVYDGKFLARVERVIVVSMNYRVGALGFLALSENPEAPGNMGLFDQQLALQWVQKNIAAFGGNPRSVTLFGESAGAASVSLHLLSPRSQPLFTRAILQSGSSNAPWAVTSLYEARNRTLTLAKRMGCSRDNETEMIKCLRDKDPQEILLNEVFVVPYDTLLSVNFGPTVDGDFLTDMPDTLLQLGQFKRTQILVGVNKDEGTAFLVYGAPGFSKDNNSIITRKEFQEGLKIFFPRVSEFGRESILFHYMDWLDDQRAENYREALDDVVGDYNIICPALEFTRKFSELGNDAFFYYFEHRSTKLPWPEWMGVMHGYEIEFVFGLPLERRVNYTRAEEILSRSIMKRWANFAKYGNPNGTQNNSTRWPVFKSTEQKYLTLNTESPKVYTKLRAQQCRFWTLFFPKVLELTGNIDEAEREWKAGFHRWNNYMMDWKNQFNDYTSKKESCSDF
Protocol: as §1, with “(DTNB), berberine, bovine serum albumin, aminoguanidine (AG), glucose, and fructose were purchased from Sigma-Aldrich Chemical Company (St. Louis, MO, USA).” left out
as §2

BACE1 = BACE1 (Homo sapiens, UniProt P56817); test: BACE1 FRET assay kit (β-secretase) inhibition; format: biochemical; details: isolated compounds; 60 min, room temperature, pH 4.5; mean ± S.D. (n = 3)
Sequence of BACE1 (P56817 46-501): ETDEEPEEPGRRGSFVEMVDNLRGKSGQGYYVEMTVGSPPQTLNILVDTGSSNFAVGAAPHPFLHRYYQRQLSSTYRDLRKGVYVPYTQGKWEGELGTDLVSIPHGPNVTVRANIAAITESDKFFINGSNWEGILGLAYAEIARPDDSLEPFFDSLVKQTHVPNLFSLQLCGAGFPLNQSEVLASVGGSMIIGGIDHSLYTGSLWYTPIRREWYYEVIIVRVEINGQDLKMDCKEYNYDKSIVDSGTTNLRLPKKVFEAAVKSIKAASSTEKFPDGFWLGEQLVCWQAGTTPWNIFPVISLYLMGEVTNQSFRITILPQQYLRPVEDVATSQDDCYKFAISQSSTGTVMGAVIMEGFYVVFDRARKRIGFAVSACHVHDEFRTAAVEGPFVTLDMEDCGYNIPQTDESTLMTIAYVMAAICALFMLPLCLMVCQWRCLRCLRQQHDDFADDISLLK
Protocol: as §1, with “(DTNB), berberine, bovine serum albumin, aminoguanidine (AG), glucose, and fructose were purchased from Sigma-Aldrich Chemical Company (St. Louis, MO, USA).” left out
BACE1 inhibition was measured with a commercially available spectrophotometric method according to the manufacturer’s recommended protocol. The assay mixture contained 50 mM sodium acetate buffer (pH 4.5), 1.0 U/mL BACE1, substrate (750 nM Rh-[…]-Quencher in 50 mM ammonium bicarbonate), and sample. […] The reaction was incubated for 60 min at room temperature in the dark. BACE1 activity was determined by measuring the proteolysis of two fluorophores (Rh-[…]-Quencher) to form a fluorescent donor (Rh-EVNL) with an excitation of 545 nm and emission of 585 nm in a black 96-well plate. […] Inhibition was calculated with the following formula: (Ac − As/Ac) × 100, where Ac is the change in fluorescence for the control after 60 min, and As is the change in fluorescence for the sample after 60 min.

[3] = isolated compounds, 15 min, pH 7.8, mean ± S.D. (n = 3), read-out: IC50 AChE (converted)
[4] = isolated compounds, 15 min, pH 7.8, mean ± S.D. (n = 3), read-out: IC50 BChE

| SMILES | IC50 AGE Formation (AGE formation; extracts and fractions) [µg/mL] | IC50 (AGE formation) [µM] | IC50 ([1]; extracts and fractions, 15 min, pH 7.8, mean ± S.D. (n = 3), read-out: IC50 AChE (converted)) [µM] | IC50 [1, 3] [µM] | IC50 [2, 4] [µM] | IC50 (BACE1) [µM] | IC50 ([2]; IC50 BChE) [µM] | IC50 ([1]; IC50 AChE) [µM] |
| --- | --- | --- | --- | --- | --- | --- | --- | --- |
| N=C(N)NN [AG, aminoguanidine, reference compound] | 104.87 ± 6.94 (≈ 1420 µM) | 762 ± 69.1 |  |  |  |  |  |  |
| COc1ccc2cc3[n+](cc2c1OC)CCc1cc2c(cc1-3)OCO2 [Berberine, berberine, reference compound] |  |  | 0.416 | 0.42 ± 0.03 |  |  |  |  |
| COc1c(O)ccc2c1C(=O)c1ccccc1C2=O [Compound 1, alizarin-1-methyl ether] |  | 292.4 ± 2.28 |  | 175 ± 10.7 | 450 ± 8.82 | 192 ± 7.32 |  |  |
| COc1c(O)cc2c(c1OC)C(=O)c1ccccc1C2=O [Compound 2, 1,2-dimethoxy-3-hydroxy anthraquinone] |  | 438 ± 23.9 |  | 147 ± 13.3 | 442 ± 10.6 | 115 ± 21.6 |  |  |
| COc1ccc2c(c1)C(=O)c1ccccc1C2=O [Compound 3, 2-methoxy anthraquinone] |  | 88.4 ± 3.28 |  | 187 ± 20.1 | 230 ± 5.97 | 9.29 ± 1.92 |  |  |
| COc1cc2c(cc1CO)C(=O)c1ccccc1C2=O [Compound 4, 2-hydroxymethyl-3-methoxy anthraquinone] |  | 530 ± 15.5 |  | 27 ± 1.49 | > 500 | > 200 |  |  |
| O=C1c2ccccc2C(=O)c2cc(CO)c(O)cc21 [Compound 5, 2-hydroxymethyl-3-hydroxy anthraquinone] |  | 355 ± 12 |  | 19.1 ± 3.58 | 459 ± 13.1 | > 200 |  |  |
| COc1c(C)c(O)cc2c1C(=O)c1ccccc1C2=O [Compound 6, rubiadin-1-methyl ether] |  | > 1000 |  | 87.2 ± 6.56 | > 500 | 25.9 ± 2.11 |  |  |
| O=C1c2ccccc2C(=O)c2c(O)cc(CO)cc21 [Compound 7, 1-hydroxy-3-hydroxymethyl anthraquinone] |  |  |  | 96.4 ± 17.2 | > 500 |  |  |  |
| Cc1c(O)cc2c(c1O)C(=O)c1ccccc1C2=O [Compound 8, rubiadin] |  | 522 ± 10.1 |  | 44.3 ± 12.2 | > 500 | 19.8 ± 3.05 |  |  |
| COc1cc2ccc(=O)oc2cc1O [Compound 9, scopoletin] |  | 5.43 ± 0.11 |  | 236 ± 21.2 | 50.4 ± 1.61 | > 200 |  |  |
| CC[C@H](CC[C@@H](C)[C@H]1CC[C@H]2[C@@H]3CC=C4C[C@@H](O)CC[C@]4(C)[C@H]3CC[C@]12C)C(C)C [Compound 10, β-sitosterol] |  |  |  |  |  |  | > 500 | > 500 |
